Reference: PubChem BioAssay (NCI)
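Where inhibition never reached the appropriate level, the endpoint shown equals the highest concentration tested. Otherwise, values were interpolated linearly from a five-concentration, 48-hour dose response in 96-well plates. GI50 = concentration required for 50% inhibition of growth. TGI: total growth inhibition.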

Experiments:
Experiment in all cases: NCI tumour cell line growth inhibition, 48 h
MDA-N = tested on: MDA-N
SNB-78 CNS = tested on: SNB-78 CNS
LXFL 529 NSCLC = tested on: LXFL 529 NSCLC
XF 498 CNS = tested on: XF 498 CNS
DMS 114 small cell lung = tested on: DMS 114 small cell lung
KM20L2 colon = tested on: KM20L2 colon
DMS 273 small cell lung = tested on: DMS 273 small cell lung
HOP-18 NSCLC = tested on: HOP-18 NSCLC
RXF-631 renal = tested on: RXF-631 renal
P388/ADR leukemia = tested on: P388/ADR leukemia
SN12K1 renal = tested on: SN12K1 renal
P388 leukemia = tested on: P388 leukemia

SMILES | TGI (SNB-78 CNS) | TGI (LXFL 529 NSCLC) | TGI (XF 498 CNS) | TGI (DMS 114 small cell lung) | TGI (KM20L2 colon) | TGI (DMS 273 small cell lung) | TGI (HOP-18 NSCLC) | TGI (RXF-631 renal) | further results
Cc1nn(-c2ccc(S(=O)(=O)[O-])cc2)c([O-])c1N=[N+](C)c1ccc(-c2ccc(N=Nc3ccc4c(S(=O)(=O)[O-])cc(S(=O)(=O)[O-])c(N)c4c3[O-])c([O-])c2)cc1[O-].[Cu+2].[Cu+2].[Na+] | – | – | – | – | – | – | – | – | GI50 (MDA-N): > 100 µM; TGI (MDA-N): > 100 µM
O=C1NC(c2ccc(O)cc2)C2CCC1C2 (stereo not given) | > 100 µM | > 100 µM | > 100 µM | > 100 µM | > 100 µM | – | – | – | –
O=[N+]([O-])[C@@H]1C2C=CC(C2)[C@H]1Cl (stereo not given in full) | > 100 µM | > 100 µM | > 100 µM | > 100 µM | – | > 100 µM | > 100 µM | > 100 µM | –
N/C(CC(=O)Nc1cc(C(F)(F)F)ccc1Cl)=N\O | – | – | – | – | – | – | – | – | TGI (MDA-N): > 100 µM
O=C(C#Cc1c[nH]c(=O)[nH]c1=O)c1ccccc1Cl | 60.7 µM | – | – | 46.9 µM | – | 38.8 µM | 34.4 µM | – | –
COc1ccc2cc1Oc1ccc(cc1)C[C@H]1c3cc(c(OC)cc3CCN1C)Oc1c(OC)c(OC)cc3c1[C@H](C2)N(C)CC3 | 21.1 µM | – | 18.1 µM | 15.3 µM | 10.7 µM | 13.2 µM | 20.3 µM | – | TGI (P388/ADR leukemia): 14.9 µM; TGI (SN12K1 renal): 14 µM; TGI (P388 leukemia): 9.38 µM
CCc1c2c(nc3cc4c(cc13)OCO4)-c1cc3c(c(=O)n1C2)COC(=O)[C@]3(O)CC | – | – | – | – | – | – | – | – | TGI (MDA-N): > 100 µM
NC(CO)Cc1cnc[nH]1 (stereo not given) | – | – | – | – | – | – | – | – | GI50 (MDA-N): > 100 µM; TGI (MDA-N): > 100 µM
C1COCCN1.C1COCCN1.N.N.[Cl-].[Pt+2] | > 100 µM | > 100 µM | – | – | > 100 µM | > 100 µM | > 100 µM | – | GI50 (SNB-78 CNS): > 100 µM; GI50 (LXFL 529 NSCLC): > 100 µM; GI50 (DMS 273 small cell lung): > 100 µM; GI50 (HOP-18 NSCLC): > 100 µM; GI50 (KM20L2 colon): > 100 µM
Cc1ccc(-c2c(N)nc(NC#N)nc2CCC(=O)Nc2ccccc2[N+](=O)[O-])cc1 | > 100 µM | > 100 µM | – | > 100 µM | > 100 µM | > 100 µM | > 100 µM | – | –
COc1cc2c(c3c1C=CCO3)C(=O)c1ccccc1C2=O | > 100 µM | > 100 µM | – | > 100 µM | > 100 µM | > 100 µM | > 100 µM | – | –
CCCCCCCCCCCCC(=O)OC(c1cnco1)c1nc(C(O)CC(O)C(O)C(C)O)co1 (stereo not given) | – | > 100 µM | > 100 µM | 3.96 µM | > 48.2 µM | > 38.6 µM | > 100 µM | – | –
FC(F)(F)c1nc(-c2ccccc2Cl)[nH]c1C(F)(F)F | > 29.5 µM | 3.73 µM | 1.54 µM | 1.9 µM | 3.44 µM | 3.03 µM | 2.6 µM | – | –
N#CC1(c2nc3ccccc3o2)C(=O)C(=O)N(C2C3CC4CC(C3)CC2C4)C(=O)C1=O (stereo not given) | > 100 µM | > 100 µM | > 100 µM | > 100 µM | > 100 µM | > 100 µM | > 100 µM | – | –
C=CCSC[C@H](NC(=O)COc1ccccc1)C(=O)NC(C(=O)OCc1ccc([N+](=O)[O-])cc1)=C(C)C | > 100 µM | > 100 µM | – | > 100 µM | > 100 µM | > 100 µM | > 100 µM | > 100 µM | –
CN(C)/C(=N/C(=S)Nc1ccccc1)SCc1ccccc1 | > 100 µM | > 100 µM | > 100 µM | > 100 µM | – | > 100 µM | > 100 µM | > 100 µM | –
CCCCCCCCCCCCCCCC(=O)NCC(COP(=O)([O-])OCC[N+](C)(C)C)OCC (stereo not given) | 29.6 µM | 27.8 µM | 25.5 µM | 29.8 µM | 13.7 µM | 5 µM | 4.53 µM | – | –

SMILES | TGI (SNB-78 CNS) | TGI (LXFL 529 NSCLC) | TGI (XF 498 CNS) | TGI (DMS 114 small cell lung) | TGI (KM20L2 colon) | TGI (DMS 273 small cell lung) | TGI (HOP-18 NSCLC) | TGI (RXF-631 renal) | further results
O=C1CCCN(c2ccccc2)N1 | – | > 100 µM | – | > 100 µM | > 100 µM | > 100 µM | – | > 100 µM | –
COC(=O)C(C#N)=C1c2ccccc2Oc2ccccc21 | > 100 µM | 94.8 µM | > 100 µM | > 100 µM | > 100 µM | > 100 µM | – | – | –
O=c1cc(-c2cccc(F)c2)[nH]c2cc3c(cc12)OCO3 | 75 µM | 75 µM | 75 µM | 2.24 µM | – | 75 µM | 75 µM | – | TGI (MDA-N): 0.0407 µM
Cc1ccccc1C(C#N)C(=O)C(=O)Nc1nc([N+](=O)[O-])cs1 (stereo not given) | > 100 µM | > 100 µM | > 100 µM | > 100 µM | > 100 µM | – | > 100 µM | > 100 µM | –
O=C1NC2(CCCC2)C(=O)C12CCCC2 | > 100 µM | > 100 µM | > 100 µM | – | – | > 100 µM | > 100 µM | > 100 µM | –
O=C(/C=C/c1ccccc1)/C=C/c1ccccc1O | > 100 µM | 33.7 µM | > 100 µM | 35.3 µM | 34.8 µM | – | 1.76 µM | – | –
COC(=O)C(=O)CC(=O)CCn1ncc(Cl)c(Cl)c1=O | 50.8 µM | 24.2 µM | 44.6 µM | 8.69 µM | 33.4 µM | 30.3 µM | – | 23.6 µM | –
CCOC(=O)C1(CC)CCCCC(=O)N1 (stereo not given) | > 100 µM | > 100 µM | > 100 µM | > 100 µM | > 100 µM | > 100 µM | > 100 µM | – | –
CC(=O)[CH-]C(=O)c1ccccc1.CC(=O)[CH-]C(=O)c1ccccc1.CCCCCCCCCCCCCCCCCC(=O)[O-].CCCCCCCCCCCCCCCCCC(=O)[O-].[Ti+4] | – | 34.6 µM | – | – | > 100 µM | 38.7 µM | – | – | GI50 (LXFL 529 NSCLC): 18 µM; GI50 (DMS 273 small cell lung): 20.1 µM; GI50 (KM20L2 colon): 33.9 µM
CSC1=NC=CCN1C | – | > 100 µM | – | > 100 µM | > 100 µM | > 100 µM | > 100 µM | – | –
C=CC1=CSNN1 | – | > 100 µM | – | > 100 µM | > 100 µM | > 100 µM | > 100 µM | – | –
C#CCNC(=O)NC(CCCNC(=O)OCc1ccccc1)C(=O)OCc1ccccc1 (stereo not given) | > 100 µM | > 100 µM | 26.9 µM | > 100 µM | > 100 µM | > 100 µM | – | > 100 µM | –
CC(=O)OCC1OC(O[C@@H]2C[C@H]3C(C)(C)[C@H](OC(C)=O)CC[C@]3(C)[C@H]3CCC4=C([C@@H](C)C[C@@H](O)[C@H](O)C(C)(C)O)CC[C@@]4(C)[C@@]32C)C(O)C(O)C1O (stereo not given in full) | – | – | – | – | – | – | – | – | GI50 (MDA-N): 16.8 µM; TGI (MDA-N): 30.5 µM
Clc1ccccc1C(c1ccccc1)(c1ccccc1)n1ccnc1 | – | – | – | – | – | – | – | – | TGI (MDA-N): 32.1 µM
COC(=O)C(c1[nH]nc2ccccc12)C(C(=O)OC)c1[nH]nc2ccccc12 (stereo not given) | > 100 µM | > 100 µM | > 100 µM | 83.8 µM | > 100 µM | – | > 100 µM | > 100 µM | –
